From patent EP2797914B1, “NIFURATEL SULFOXIDE FOR USE IN THE TREATMENT OF BACTERIAL INFECTIONS” (Polichem SA, priority 2011, dated 2013)
In brackets after ≈: the same amount, converted by molar mass.

Tests used:
Atopobium vaginae = assay: MIC by agar dilution method (CLSI M07-A8 / M11-A7); efficiency coefficient derived; assay type: cell-based; conditions: Fannyhessea vaginae
Experimental: (§1) The in vitro activity of nifuratel sulfoxide racemate, R-nifuratel sulfoxide and S-nifuratel sulfoxide was tested on a panel of bacteria, which included both Gram positive and Gram negative bacteria.
(§2) The minimum inhibitory concentrations (MICs) of the compounds were determined by the broth microdilution method or by the agar dilution method, according to the National Committee for Clinical Laboratory Standards (CLSI) reference methods M07-A8 and M11-A7.
(§3) The efficiency coefficient (EC) of nifuratel sulfoxide vs. nifuratel was calculated for each tested strain as follows: EC = relative oral bioavailability*[…] [formula]
(§4) Where: • nifS = nifuratel sulfoxide • nif = nifuratel • EC = 1 is indicative of equivalent efficiency between nifuratel sulfoxide and nifuratel. • EC < 1 is indicative of a lower efficiency of nifuratel sulfoxide vs. nifuratel • EC > 1 is indicative of a higher efficiency of nifS vs. nif

Gardnerella vaginalis = assay: as above; assay type: cell-based; conditions: Gardnerella vaginalis
Experimental: as §1, §2, §3, §4

[1] = tested on: Proteus mirabilis ATCC 14153; assay: MIC by broth microdilution method (CLSI M07-A8 / M11-A7); efficiency coefficient derived; assay type: cell-based; conditions: Proteus mirabilis, ATCC14153
Experimental: as §1, §2, §3, §4

[2] = tested on: Salmonella paratyphi B ATCC 10719; assay: as above; assay type: cell-based; conditions: Salmonella enterica, read-out: MIC
Experimental: as §1, §2, §3, §4

[3] = tested on: Escherichia coli ATCC 11775; assay: as above; assay type: cell-based; conditions: Escherichia coli, ATCC11775
Experimental: as §1, §2, §3, §4

[4] = tested on: Shigella sonnei ATCC 11060; assay: as above; assay type: cell-based; conditions: ATCC11060, read-out: MIC
Experimental: as §1, §2, §3, §4

[5] = tested on: Neisseria gonorrhoeae ATCC 19424; assay: as above; assay type: cell-based; conditions: Neisseria gonorrhoeae, ATCC19424
Experimental: as §1, §2, §3, §4

[6] = tested on: Micrococcus pyogenes ATCC 11631; assay: as above; assay type: cell-based; conditions: Staphylococcus aureus, ATCC11631
Experimental: as §1, §2, §3, §4

[7] = tested on: Klebsiella pneumonia ATCC 10031; assay: as above; assay type: cell-based; conditions: Klebsiella pneumoniae, ATCC10031
Experimental: as §1, §2, §3, §4

[8] = tested on: Staphylococcus aureus (MRSA); assay: as above; assay type: cell-based; conditions: Staphylococcus aureus, MRSA
Experimental: as §1, §2, §3, §4

[9] = tested on: Salmonella typhimurium ATCC 14028; assay: as above; assay type: cell-based; conditions: Salmonella enterica
Experimental: as §1, §2, §3, §4

[10] = tested on: Lactobacillus iners ATCC 55195; assay: MIC by broth microdilution method (CLSI M07-A8 / M11-A7); assay type: cell-based; conditions: Lactobacillus iners, ATCC55195
Experimental: The in vitro activity of nifuratel sulfoxide racemate, R-nifuratel sulfoxide and S-nifuratel sulfoxide was tested on a panel of bacteria, which included both Gram positive and Gram negative bacteria. The minimum inhibitory concentrations (MICs) of the compounds were determined by the broth microdilution method or by the agar dilution method, according to the National Committee for Clinical Laboratory Standards (CLSI) reference methods […]-A8 and M11-A7.

[11] = Metabolic profiling of nifuratel in human urines by LC/MS/MS after oral administration; assay type: in vivo; conditions: in vivo, po
Experimental: As a matter of fact, metabolic profiling of nifuratel, following oral administration, was assessed in human urines by liquid chromatography/tandem mass spectrometry (LC/MS/MS).
More in details, urines of two subjects treated orally with nifuratel were collected at the following time-points: pre-dose, 0-4, 4-8, 8-12, 12-24, 24-36 and 36-48 h after treatment.
Nifuratel was not detected in any of the urine samples. […] Based on such a discovery, the applicant has performed both in vitro and in vivo tests in order to establish whether nifuratel sulfoxide is endowed with anti-bacterial activity.

[12] = Rat pharmacokinetics in plasma, non compartmental analysis; assay type: in vivo, male rats; conditions: rat, in vivo
Experimental: The pharmacokinetic profiles in plasma of nifuratel and nifuratel sulfoxide were tested after intravenous administration (2mg/kg) and oral gavage (15mg/kg) in male rats. […]

CSCC1CN(/N=C/c2ccc([N+](=O)[O-])o2)C(=O)O1 (centres unmarked) [Nifuratel]
MIC (Atopobium vaginae; CCUG38953): 0.125 µg/mL (≈ 0.438 µM)
MIC (Atopobium vaginae; CCUG39382): 0.25 µg/mL (≈ 0.876 µM)
MIC (Atopobium vaginae; CCUG42099): 0.5 µg/mL (≈ 1.75 µM)
MIC (Atopobium vaginae; CCUG43049): 0.25 µg/mL (≈ 0.876 µM)
MIC (Atopobium vaginae; CCUG44061): 0.5 µg/mL (≈ 1.75 µM)
MIC (Atopobium vaginae; CCUG44156): 0.5 µg/mL (≈ 1.75 µM)
MIC (Atopobium vaginae; CCUG48515): 1 µg/mL (≈ 3.51 µM)
MIC (Atopobium vaginae; CCUG55226): 1 µg/mL (≈ 3.51 µM)
MIC (Atopobium vaginae; CCUG55227): 0.25 µg/mL (≈ 0.876 µM)
MIC (Gardnerella vaginalis; ATCC14018, agar dilution, strain ATCC 14018): 2 µg/mL (≈ 7.01 µM)
MIC (Gardnerella vaginalis; agar dilution, strain C2): 8 µg/mL (≈ 28 µM)
MIC (Gardnerella vaginalis; agar dilution, strain D2): 4 µg/mL (≈ 14 µM)
MIC (Gardnerella vaginalis; agar dilution, strain E2): 2 µg/mL (≈ 7.01 µM)
MIC (Gardnerella vaginalis; agar dilution, strain G2): 2 µg/mL (≈ 7.01 µM)
MIC (Gardnerella vaginalis; agar dilution, strain H2): 1 µg/mL (≈ 3.51 µM)
MIC (Gardnerella vaginalis; agar dilution, strain J2): 2 µg/mL (≈ 7.01 µM)
MIC (Gardnerella vaginalis; agar dilution, strain K2): 4 µg/mL (≈ 14 µM)
MIC [1]: 8 µg/mL (≈ 28 µM)
MIC [2]: 2 µg/mL (≈ 7.01 µM)
MIC [3]: 1 µg/mL (≈ 3.51 µM)
MIC [4]: 1 µg/mL (≈ 3.51 µM)
MIC [5]: 0.25 µg/mL (≈ 0.876 µM)
MIC [6]: 1 µg/mL (≈ 3.51 µM)
MIC [7]: 2 µg/mL (≈ 7.01 µM)
MIC [8]: 2 µg/mL (≈ 7.01 µM)
MIC [9]: 4 µg/mL (≈ 14 µM)
MIC [10]: 16 µg/mL (≈ 56.1 µM)
detection of parent compound in urine samples [11]: not detected
C0 ([12]; male, iv, 2 mg/kg): 798 ng/mL
T1/7 ([12]; male, iv, 2 mg/kg): 24 min
Tlast ([12]; male, iv, 2 mg/kg): 120 min
concentration at 120 min ([12]; male, iv, 2 mg/kg): 5 ng/mL
Cmax ([12]; male, po, 15 mg/kg): 8 ng/mL
Tmax ([12]; male, po, 15 mg/kg): 30 min
Vss ([12]; iv, 2 mg/kg): 4.5 kg⁻¹
